According to PubChem BioAssay AID179 (DTP/NCI, 2004):
Calls of active or inactive are those of the source.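 Rule for the calls: active = compounds giving half or more protection of infected cells from virus-caused growth loss, again on retest; inactive = the rest.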 Where a SMILES comes first, the peptide text is derived from it. Bridges are numbered along the chain shown (N, C = ends). The star is where a group is joined. Cbz = O=C(OCc1ccccc1)*; OBn = c1ccc(CO*)cc1; CH2Cl = ClC*

System: CEM cells HIV-1 protection, formazan growth assay
Experiment: NCI AIDS Antiviral Assay
Conditions: for IC50: measured here: growth of uninfected CEM cells
Method in brief: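 Human CEM cells, uninfected and HIV-1-infected, exposed to five drug concentrations; growth measured by soluble formazan assay and scored as percent protection from infection, with protecting compounds retested.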

Cc1c([O-])c([O-])c(C)c2c1OCO2.[C-]#[O+].[C-]#[O+].[C-]#[O+].[C-]#[O+].[Re]
EC50: > 200 µM
IC50: 31.6 µM

COC(=O)C(=O)C(C(=O)C(N)=O)c1nc2ccc(C(=O)c3ccccc3)cc2[nH]c1=O (stereo not drawn)
EC50: > 85.1 µM
IC50: > 85.1 µM

O=C1c2cccnc2S(=O)(=O)N1c1ccc([N+](=O)[O-])cc1
EC50: > 200 µM
IC50: 23.4 µM

CCCCCCCCCCCCCCCC=C(c1cc(Br)c(OC)c(C(=O)OC)c1)c1cc(Br)c(OC)c(C(=O)OC)c1
EC50: > 27.5 µM
IC50: > 27.5 µM

N#C/C(=C\c1cccc(F)c1)C(=O)c1ccccc1
EC50: > 39.8 µM
IC50: > 39.8 µM

N/C(=N\NS(=O)(=O)c1ccccc1)Oc1ccc(Cl)cc1
EC50: > 398 µM
IC50: 339 µM

CN(C)C(=Nc1ccc(NC(=O)c2ccc(C(=O)Nc3ccc(N=C(Nc4ccccc4)N(C)C)cc3)cc2)cc1)Nc1ccccc1
outcome: inactive

C=CCCCN1C(=O)C2C3c4ccccc4C(C=O)(c4ccccc43)C2C1=O (stereo not drawn)
EC50: > 200 µM
IC50: 7.24 µM

O=CNNC(=O)Nc1cccc2ccccc12
EC50: > 200 µM
IC50: > 200 µM

COc1cc(Cl)c2c3c(c(C(=O)c4ccccc4)oc13)CCC2
outcome: inactive

O=[N+]([O-])c1ccc(CSc2c3ccccc3nc3ccccc23)cc1
EC50: > 200 µM
IC50: 3.39 µM

CC(=O)N1CC(=O)N2C(=O)/C(=C/c3ccc(Cl)cc3)N=C12
EC50: > 63.1 µM
IC50: 6.92 µM

C#CCCCCC#Cc1ccccc1C(=O)OC
EC50: > 151 µM
IC50: 28.8 µM

Cc1csc(-n2nc(C)cc2C)n1
EC50: > 200 µM
IC50: > 200 µM

Cc1cc2c(C)nn(Cc3ccc(Cl)cc3)c2c(C#N)c1C
EC50: > 43.7 µM
IC50: > 43.7 µM

COc1ccc(C(O)C(=O)c2nc3ccc(Cl)cc3[nH]c2=O)cc1 (stereo not drawn)
outcome: inactive

COc1ccc(/C=C\c2cc(OC)c(OC)c(OC)c2)cc1OC(=O)CCC(=O)O
EC50: > 0.2 µM
IC50: 0.000562 µM

COc1cccc(/C=C2\SC(=S)N(/C=C(/C#N)C(N)=O)C2=O)c1O
EC50: 100 µM
IC50: 112 µM

Cc1ccc(N/N=c2\c3nc4ccccc4nc2n(-c2ccccc2C)c(=S)n3-c2ccccn2)cc1
EC50: > 17.8 µM

Cc1nc2cc[nH]n2c(=O)c1CCc1ccccc1
EC50: > 200 µM
IC50: 151 µM

Nc1ncc(C2[C@H](CNC(=O)c3cc(Br)c[nH]3)C(CNC(=O)c3cc(Br)c[nH]3)[C@@H]2c2cnc(N)[nH]2)[nH]1 (stereo partly drawn)
outcome: active

Nc1ccc(-c2ccc(N)c(S(=O)(=O)O)c2)cc1S(=O)(=O)O
EC50: > 724 µM
IC50: > 724 µM

CC1=C[C@H](C[C@]2(C)c3c(c4c(C)cccc4oc3=O)O[C@@H]2C)OC1=O
EC50: > 200 µM
IC50: 26.9 µM

CCCCCCCCCCCCCCCC(=O)Nc1ccn(C2CSC(COP(=O)(O)OC3CC(n4ccc(NC(=O)CCCCCCCCCCCCCCC)nc4=O)OC3CO)O2)c(=O)n1 (stereo not drawn)
EC50: 9.55 µM
IC50: > 200 µM

O=C1C2C=CC(n3[nH]c(=O)n(Cc4ccccc4)c3=O)CC2C(=O)N1c1cccc(Cl)c1 (stereo not drawn)
EC50: > 398 µM
IC50: > 398 µM

CC(C)(C)OC(=O)NCCC(N)=S
EC50: > 646 µM
IC50: 174 µM

COc1ccc(-c2sc(/N=C/c3cc(OC)c(OC)c(OC)c3)c(C#N)c2C)cc1OC
EC50: > 200 µM
IC50: 11.2 µM

CO/N=C/c1cc(NC(=S)c2ccoc2C)ccc1Cl
EC50: 0.0575 µM
IC50: 29.5 µM

C(=N\NC1=NCCN1)/c1ccc(-c2cn3cc(/C=N/NC4=NCCN4)ccc3n2)cc1
EC50: > 53.7 µM
IC50: 3.72 µM

CCOC(=O)c1nc2ccccc2nc1NCc1ccc(OC)c(OC)c1
EC50: > 200 µM
IC50: > 200 µM

COc1ccc(-n2c(N)c(C#N)c3c(c2=S)CCC3)cc1
EC50: > 316 µM
IC50: > 316 µM

N#Cc1c(N)c(C(=O)Nc2ccccc2)n2c1CCC2
EC50: > 200 µM
IC50: > 200 µM

COc1ccc(-c2nnc(CCCCCCCCc3nnc(-c4ccc(OC)cc4)o3)o2)cc1
EC50: > 200 µM
IC50: > 200 µM

CN(C)CCN1C(=O)CC(c2ccccc2)Sc2ccccc21 (stereo not drawn)
EC50: > 245 µM
IC50: > 245 µM

CCOC(=O)c1c(N2CCCC2)[nH]c(=O)c(C(c2cccs2)c2c(O)c(C(=O)OCC)c(N3CCCC3)[nH]c2=O)c1O
EC50: > 200 µM
IC50: 141 µM

Cc1nc(N)c(N=O)c(=O)[nH]1
EC50: > 200 µM
IC50: > 200 µM

COC(OC)[C@@H]1OC[C@@H](O)[C@@H]1n1cnc2c(N)ncnc21
EC50: > 200 µM
IC50: > 200 µM

CCOC(=O)Cc1ccc(Nc2nc3cc(C(F)(F)F)ccc3nc2C(=O)OCC)cc1
EC50: > 100 µM
IC50: > 100 µM

Nc1ncnc2c1ncc(=O)n2C1CC(O)C(CO)O1 (stereo not drawn)
EC50: > 200 µM
IC50: > 200 µM

CCN(CC)C1CCC(C2c3cc4c(cc3OC(N3CCOCC3)C2C)OCO4)CC1 (stereo not drawn)
EC50: > 100 µM
IC50: 5.89 µM

CC1(C)COC(c2c(-c3ccccc3)noc2CS(=O)c2ccccc2)=N1 (stereo not drawn)
EC50: > 100 µM
IC50: 42.7 µM

Cc1cn(C2CC(OP(=O)(O)OCC3CCC(n4ccc(N)nc4=O)O3)C(CO)O2)c(=O)[nH]c1=O (stereo not drawn)
EC50: 0.204 µM
IC50: 35.5 µM

[C-]#[N+]CS(=O)(=O)c1ccc(C)cc1
EC50: > 479 µM
IC50: > 479 µM

O=C(O)c1ccc(Nc2nc3nn(Cc4ccccc4)cc3c(=O)s2)cc1
EC50: > 195 µM
IC50: > 195 µM

CC(=O)NC(CC(C)C)C(=O)NC(Cc1ccccc1)C(=O)CCl (stereo not drawn) (Ac-Leu-Phe-CH2Cl; configuration not given here)
EC50: > 200 µM
IC50: 1.12 µM

CC(=O)Nc1cccc(C(CC(=O)O)CC(=O)O)c1
EC50: > 200 µM
IC50: > 200 µM

C/C(Cl)=N/OC(=O)Nc1ccc(F)c([N+](=O)[O-])c1
EC50: > 200 µM
IC50: 3.24 µM

C[C@]12Cc3conc3C(O)=C1CC[C@@H]1C2CC[C@@]2(C)C1CC[C@]2(C)O (stereo partly drawn)
outcome: inactive

CCOC(=O)c1cnc(SCc2ccc(Cl)c(Cl)c2)nc1N1CC1C (stereo not drawn)
EC50: > 200 µM
IC50: 6.46 µM

CN1CC(c2ccccc2)=Cc2c1ccc(N)c2N=N
EC50: > 200 µM
IC50: > 200 µM

O=S1(=O)OCCOS(=O)(=O)C1Cc1ccccc1
EC50: > 447 µM
IC50: 50.1 µM

CCOC(=O)c1cc(/C=C/C(C)=C/C(=O)OC)oc1C
EC50: > 67.6 µM
IC50: > 67.6 µM

C[C@H](NC(=O)OC1C2C=CC(O)C1CC2)c1ccccc1 (stereo partly drawn)
EC50: > 871 µM
IC50: 776 µM

CC(C)CCCC(C)[C@H]1CC[C@@H]2[C@H]3CC[C@H]4C[C@@H](CCC=C(c5cc(Cl)c(OCc6cccc([N+](=O)[O-])c6)c(C(=O)OCc6cccc([N+](=O)[O-])c6)c5)c5cc(Cl)c(OCc6cccc([N+](=O)[O-])c6)c(C(=O)OCc6cccc([N+](=O)[O-])c6)c5)CC[C@]4(C)[C@@H]3CC[C@]12C (stereo partly drawn)
EC50: > 100 µM
IC50: > 100 µM

CC(C)C(CCl)NC(=O)c1cccc(C(=O)N[C@H](CCl)C(C)C)n1 (stereo in doubt)
EC50: > 69.2 µM
IC50: > 69.2 µM

CC(=O)N1C(=N)SCC1C(N)=O (stereo not drawn)
EC50: 427 µM
IC50: 479 µM

O=C1c2ccccc2C(=O)N1OCCCCON1C(=O)c2ccccc2C1=O
EC50: > 200 µM
IC50: > 200 µM

CN(C)Cc1cc(N=Nc2ccc(Cl)cc2)cc(CN(C)C)c1O
EC50: > 20 µM
IC50: 8.71 µM

c1ccc2c3csccc-3nc2c1
EC50: > 200 µM
IC50: 97.7 µM

CC(NC(=O)C(OC(=O)C(C)NC(=O)OC(C)(C)C)C(C)C)C(=O)OC(C(=O)O)C(C)C (stereo not drawn)
EC50: > 200 µM
IC50: > 200 µM

COc1c(OC(C)=O)ccc(/C=C2\N=C(C)OC2=O)c1[N+](=O)[O-]
outcome: inactive

COCO[C@@H]1C(=O)N(c2ccccc2)[C@@H]1c1ccccc1
EC50: > 178 µM
IC50: > 178 µM

COc1cc(C2C(Cl)C(=O)N2NC(=O)c2ccc(NC(C)=O)cc2)cc(OC)c1OC (stereo not drawn)
EC50: > 200 µM
IC50: > 200 µM

CCOc1ccc(NC(=O)CC2SC(N)=NC2=O)cc1 (stereo not drawn)
EC50: > 447 µM
IC50: > 447 µM

O=C(O)c1ccccc1CC1Cc2ccc3c(c2C1=O)CCC3 (stereo not drawn)
EC50: > 200 µM
IC50: 112 µM

O=C(c1ccccc1)N1C(=S)N(c2ccc([N+](=O)[O-])cc2)C(=Nc2ccccc2)C1=Nc1ccccc1
EC50: > 200 µM
IC50: 1 µM

O=C1Nc2cc([N+](=O)[O-])ccc2C(=O)N2CCC[C@@H]12
EC50: > 200 µM
IC50: > 200 µM

COc1cc(CC2c3cc(OC)c(OC)cc3CC[N+]2(C)C)c(Oc2cc(CC3c4cc(OC)c(OC)cc4CC[N+]3(C)C)ccc2OC)cc1OC (stereo not drawn)
outcome: inactive

CC(C)=CCC/C(C)=C/CN1Cc2cccc3[nH]c(=S)n(c23)CC1C (stereo not drawn)
EC50: > 18.2 µM

OCC(O)C(O)C(O)c1nn(-c2ccccc2)c2nc3ccc(Cl)cc3nc12 (stereo not drawn)
EC50: > 112 µM
IC50: > 112 µM

Cc1cnc2c(c1)C(=O)N(c1ccc(Br)cc1)S2(=O)=O
EC50: > 200 µM
IC50: 58.9 µM

O=S(c1ccccc1)[C@H]1CC2C3CC4C2C4C31 (stereo partly drawn)
EC50: > 107 µM
IC50: > 107 µM

CC(C)(C)C1=CC(=C(c2ccccc2)c2ccccc2)C=C(C(C)(C)C)C1=O
EC50: > 47.9 µM
IC50: > 47.9 µM

COC(=O)C1CCC(=O)NCCCCC(NC(=O)C(CC(=O)OCc2ccccc2)NC(=O)OCc2ccccc2)C(=O)N1 (stereo not drawn) (Cbz-Asp(OBn)-Lys-Glu-OMe; lactam 2-3; configuration not given here)
EC50: > 200 µM
IC50: > 200 µM

CN(C)c1ccc(/C=C2\C=Cc3ccccc32)cc1
outcome: inactive

S=C1NC2=C(COc3ccccc32)C(c2ccc(Cl)cc2)N1 (stereo not drawn)
EC50: > 200 µM
IC50: 23.4 µM

CN(C)c1ccc(/C=C2\CC(C)(C)c3ccccc3C2=O)cc1
EC50: > 2 µM
IC50: 0.363 µM

CC(C)C(/C=C/c1ccccc1)=N\NC(=O)N/N=C(/C=C/c1ccccc1)C(C)C
EC50: > 6.76 µM
IC50: > 6.76 µM

O=C(O)CSCC(=O)Nc1ccc2cccc3c2c1CC3
outcome: inactive

O=C(O)C1CC2C3CCC2C1C3=O (stereo not drawn)
EC50: > 200 µM
IC50: > 200 µM

COC(OC)c1cccc2c1C(=O)CCC1(CC2)OCCCCO1
EC50: > 200 µM
IC50: > 200 µM

O=C(O)CCSCc1cc(C(=O)Nc2ccc(/C=C/c3ccc(NC(=O)c4cc(CSCCC(=O)O)c5cccnc5c4O)cc3S(=O)(=O)O)c(S(=O)(=O)O)c2)c(O)c2ncccc12
EC50: 1.51 µM
IC50: 33.9 µM
